Experimental data reported in US11834663B2, “Fibrotic treatment” (Monash University, priority 2015, dated 2023).

Test system: livers of WT mice on high salt diet
Assay: High salt diet-induced liver fibrosis reversal model (Masson's trichrome)
Format: in vivo, mouse
Conditions: WT mice on 5% NaCl diet 8 weeks, FIG. 28
Protocol: Male C57BL/6J wild type (WT) mice aged approximately 4 to 6 months weighing 30-40 grams were obtained from Monash Animal Research Laboratory. Animals were housed in the Animal House in the Department of Pharmacology, Monash University, in standard cages where they were initially maintained on a normal diet. The housing was maintained at roughly 21° C.±5° C. with mice exposed to a 12 hour light/dark cycle, and access to food and water ad libitum. Experimental procedures undertaken were approved and certified by the School of Biomedical Sciences (SOBS) Animal Ethics Committee of Monash University (2013/118).
A high-salt diet (5% salt) model is a clinically relevant and disease-reversal model which can replicate the high salt intake by humans which is currently a growing problem in the developed countries. High salt intake induces changes in the cardiovascular system and induces remodelling and fibrosis in the heart and liver. […]
Quantification of liver fibrosis was performed using images captured with the Aperio scanner (Monash Histology Platform, Monash University), with ×5 magnification. […] Percentage of interstitial and perivascular collagen was analysed and quantified using ImageJ 1.48 software (Java, NIH), and the percentage from 5 random fields of view were averaged for final percentage of collagen for that particular animal. […]

CCOC(=O)C1=C(NC(C)=O)Oc2cc(O)ccc2C1c1cccnc1 (centres unmarked) [HFI-419]
HSD-induced collagen deposition in liver (Masson's trichrome) (HFI-419 0.72 mg/kg/d s.c. for last 4 weeks): significantly reversed HSD-induced collagen deposition to the same level seen in mice fed a normal chow diet
indicators of steatosis in the liver (HFI-419 for last 4 weeks): markedly reduced
